Drawing on patent publication US20230066011A1, “PYRROLOPYRIMIDINE DERIVATIVE, AND PHARMACEUTICAL COMPOSITION FOR PREVENTING OR TREATING PROTEIN KINASE-RELATED DISEASE COMPRISING SAME AS ACTIVE INGREDIENT” (VORONOI CO., LTD., priority 2019, published 2023), this text covers IC50 for 18 compounds.

As a reminder, the IC50 is the concentration needed to halve the response being measured.

What all share (format): biochemical
Assay [1] deals with T1, human GST-DYRK1A (Homo sapiens, UniProt Q13627).
T1 construct: purified human GST-DYRK1A (full length, Thermo Scientifics) enzyme; purchased Thermo Scientifics
Description: GST-DYRK1A enzyme inhibition, ADP-Glo kinase assay. To be noted: ATP 10 μM, GST-DYRK1A full length, read-out: DYRK1 IC50. The procedure, abridged: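 Full-length enzyme (10 ng) was incubated with 10 μM ATP and a specific substrate for 1 h at 25 °C in 40 mM Tris-HCl pH 7.4, 20 mM MgCl2, 0.5 mg/mL BSA, 50 μM DTT. Luminescence was read against a solvent control, and IC50 values were derived from 3 data sets.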
In general terms: ADP-Glo turns the ADP formed in a reaction into a luminescent signal.

Assay [2] concerns the target T2, human GST-CLK1 (Homo sapiens, UniProt P49759).
T2 construct: purified human GST-CLK1 (129-end, SignalChem) enzyme; purchased SignalChem
Nature of the assay: GST-CLK1 enzyme inhibition, ADP-Glo kinase assay. Particulars: ATP 10 μM, GST-CLK1 129-end. The procedure, abridged: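 ADP-Glo luminescence read-out, relative to untreated solvent control, gave IC50 (nM) from triplicate data sets. Reactions ran an hour at 25° C with 3 ng GST-CLK1 (residues 129-end), 10 μM ATP and specific substrate in Tris-HCl pH 7.4 buffer with MgCl2, BSA and DTT.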

The target of assay [3] is LRRK2 (Homo sapiens, UniProt Q5S007). Description: LRRK2 enzyme inhibition, ADP-Glo kinase assay. On the set-up: purchased Invitrogen PR8604B. To be noted: ATP 10 μM. In outline:
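ADP-Glo luminescent read-out of ADP formed by purified human LRRK2 enzyme (25 ng), 10 μM ATP, 0.2 μg substrate, 25° C for 2 h, Tris-HCl pH 7.4 buffer with MgCl2, BSA, DTT. Inhibition versus untreated solvent control over twelve final concentrations (50 μM downward) gives IC50.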

Assay [4] addresses LRRK2 (G2019S) (Homo sapiens, UniProt Q5S007, G2019S). Nature of the assay: LRRK2 G2019S enzyme inhibition, ADP-Glo kinase assay. Particulars: ATP 25 μM. On the set-up: purchased SignalChem L10-12GG. The procedure, abridged:
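IC50 derived from luminescent ADP-Glo readout against untreated solvent control, twelve final compound concentrations from 50 μM downward. Reaction: recombinant human LRRK2 G2019S enzyme, 25 μM ATP, substrate, pH 7.4 Tris buffer with MgCl2/BSA/DTT, 25° C. for 2 hours.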

T2 sequence (P49759 129-484 limits assumed): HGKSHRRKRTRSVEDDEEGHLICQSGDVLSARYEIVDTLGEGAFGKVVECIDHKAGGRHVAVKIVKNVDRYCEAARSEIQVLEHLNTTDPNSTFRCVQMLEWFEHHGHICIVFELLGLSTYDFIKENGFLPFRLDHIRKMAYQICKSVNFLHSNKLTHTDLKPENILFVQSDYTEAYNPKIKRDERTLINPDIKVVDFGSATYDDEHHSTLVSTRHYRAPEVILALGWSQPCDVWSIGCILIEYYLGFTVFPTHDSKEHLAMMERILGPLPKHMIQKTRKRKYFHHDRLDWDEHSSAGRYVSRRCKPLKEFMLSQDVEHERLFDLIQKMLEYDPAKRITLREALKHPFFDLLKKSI
LRRK2, sequence (Q5S007 970-2527 limits assumed): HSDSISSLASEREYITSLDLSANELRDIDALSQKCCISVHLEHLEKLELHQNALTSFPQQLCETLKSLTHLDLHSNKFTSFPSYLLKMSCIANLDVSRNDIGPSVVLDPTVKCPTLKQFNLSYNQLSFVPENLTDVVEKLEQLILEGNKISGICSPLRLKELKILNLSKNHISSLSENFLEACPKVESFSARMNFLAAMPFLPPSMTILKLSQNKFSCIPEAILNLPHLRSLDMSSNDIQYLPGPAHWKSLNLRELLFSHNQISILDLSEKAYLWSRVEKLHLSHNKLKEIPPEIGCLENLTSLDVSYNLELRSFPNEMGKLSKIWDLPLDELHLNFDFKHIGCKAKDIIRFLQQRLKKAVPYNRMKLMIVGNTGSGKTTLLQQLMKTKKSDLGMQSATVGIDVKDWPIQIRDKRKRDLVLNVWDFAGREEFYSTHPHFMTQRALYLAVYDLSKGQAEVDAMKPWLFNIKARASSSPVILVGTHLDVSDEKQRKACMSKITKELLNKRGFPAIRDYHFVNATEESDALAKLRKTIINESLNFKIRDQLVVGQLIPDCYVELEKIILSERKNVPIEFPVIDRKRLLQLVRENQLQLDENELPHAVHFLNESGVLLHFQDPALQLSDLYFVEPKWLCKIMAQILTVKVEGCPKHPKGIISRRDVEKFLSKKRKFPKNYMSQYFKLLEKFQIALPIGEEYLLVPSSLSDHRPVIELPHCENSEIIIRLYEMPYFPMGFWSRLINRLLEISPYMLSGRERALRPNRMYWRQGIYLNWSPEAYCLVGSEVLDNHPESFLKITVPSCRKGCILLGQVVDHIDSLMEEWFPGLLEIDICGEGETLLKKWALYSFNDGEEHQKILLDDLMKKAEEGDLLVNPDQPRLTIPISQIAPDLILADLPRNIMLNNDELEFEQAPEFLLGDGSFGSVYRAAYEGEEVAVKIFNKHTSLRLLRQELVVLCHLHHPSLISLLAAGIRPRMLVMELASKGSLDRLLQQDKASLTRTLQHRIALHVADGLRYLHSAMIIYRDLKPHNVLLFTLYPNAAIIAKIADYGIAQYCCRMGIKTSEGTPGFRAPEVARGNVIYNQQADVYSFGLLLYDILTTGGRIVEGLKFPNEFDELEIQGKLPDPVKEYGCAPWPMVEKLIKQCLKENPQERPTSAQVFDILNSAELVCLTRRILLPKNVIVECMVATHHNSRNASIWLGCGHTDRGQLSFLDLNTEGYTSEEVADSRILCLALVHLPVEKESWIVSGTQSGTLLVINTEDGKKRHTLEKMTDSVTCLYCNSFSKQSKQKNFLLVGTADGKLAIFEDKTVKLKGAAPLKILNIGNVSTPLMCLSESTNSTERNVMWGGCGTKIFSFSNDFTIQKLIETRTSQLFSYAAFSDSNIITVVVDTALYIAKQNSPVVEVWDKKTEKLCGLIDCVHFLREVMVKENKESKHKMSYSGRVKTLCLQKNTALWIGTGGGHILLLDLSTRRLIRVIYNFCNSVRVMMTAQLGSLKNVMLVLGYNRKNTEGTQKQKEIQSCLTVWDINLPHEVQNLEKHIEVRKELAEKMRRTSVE
LRRK2 (G2019S), sequence (Q5S007 970-2527 G2019S limits assumed): as the sequence (Q5S007 970-2527 limits assumed) above, with G1050S counted along it

As to `COc1cc(S(C)(=O)=O)ccc1Nc1nc(NC(C)C)c2c(C(F)(F)F)c[nH]c2n1` [Example 166, N^4-isopropyl-N^2-(2-methoxy-4-(methylsulfonyl)-phenyl)-5-(trifluoromethyl)-7H-pyrrolo[2,3-d]pyrimidine-2,4-diamine], the IC50 in assay [1] was 301 to 1000 nM; in assay [2], 301 to 1000 nM; in assay [3] it was under 100 nM; in assay [4], 101 to 300 nM.
Turning to `COc1cc(S(C)(=O)=O)ccc1Nc1nc(NC(C)C)c2c(C#N)c[nH]c2n1` [Example 101, 4-(isopropylamino)-2-((2-methoxy-4-(methylsulfonyl)phenyl)amino)-7H-pyrrolo[2,3-d]pyrimidine-5-carbonitrile], the IC50 was 301 to 1000 nM in assay [1], 301 to 1000 nM in assay [2], under 100 nM in assay [3] and under 100 nM in assay [4].
As to `COCCNc1nc(Nc2ccc(S(C)(=O)=O)cc2OC)nc2[nH]cc(C(F)(F)F)c12` [Example 171, N^2-(2-methoxy-4-(methylsulfonyl)phenyl)-N^4-(2-methoxyethyl)-5-(trifluoromethyl)-7H-pyrrolo[2,3-d]pyrimidine-2,4-diamine], the IC50 in assay [1] was 301 to 1000 nM; in assay [2], 301 to 1000 nM; in assay [3], under 100 nM; in assay [4] it was under 100 nM.
As to `CNc1nc(Nc2ccc(C(=O)N3CCOCC3)c3c2OCCO3)nc2[nH]cc(C(F)(F)F)c12` [Example 155, (8-((4-(methyalmino)-5-(trifluoromethyl)-7H-pyrrolo[2,3-d]pyrimidin-2-yl)amino)-2,3-dihydrobenzo[b][1,4]dioxin-5-yl)(morpholino)methanone 2,2,2-trifluoroacetate], the IC50 in assay [1], in assay [2], in assay [3] and in assay [4] was under 100 nM each time.
Take `COc1cc(S(=O)(=O)N2CCC(N3CCOCC3)CC2)ccc1Nc1nc(NCCS(C)(=O)=O)c2c(C#N)c[nH]c2n1` [Example 96, 2-((2-methoxy-4-((4-morpholinopiperidin-1-yl)sulfonyl)phenyl)amino)-4-((2-(methylsulfonyl)ethyl)amino)-7H-pyrrolo[2,3-d]pyrimidine-5-carbonitrile]: the IC50 in assay [1] was 301 to 1000 nM; in assay [2] it was under 100 nM; in assay [3], under 100 nM; in assay [4] it was under 100 nM.
As for `CNc1nc(Nc2ccc(C(=O)N3CCOCC3)c3c2OCCO3)nc2[nH]ccc12` [Example 43, (8-((4-(methylamino)-7H-pyrrolo[2,3-d]pyrimidin-2-yl)amino)-2,3-dihydrobenzo[b][1,4]dioxin-5-yl)(morpholino)methanone], the IC50 in assay [1] is 301 to 1000 nM; in assay [2], 301 to 1000 nM; in assay [3] it was under 100 nM; in assay [4], under 100 nM.
On to `CCNc1nc(Nc2ccc(C(=O)N3CCC(N4CCOCC4)CC3)c3c2OCCO3)nc2[nH]cc(C(F)(F)F)c12` [Example 363, (8-((4-(ethylamino)-5-(trifluoromethyl)-7H-pyrrolo[2,3-d]pyrimidin-2-yl)amino)-2,3-dihydro-benzo[b][1,4]dioxin-5-yl)(4-morpholino-piperidin-1-yl)methanone], for which the half-maximal inhibitory concentration (IC50) in assay [1] was 101 to 300 nM; in assay [2], under 100 nM; in assay [3], under 100 nM; in assay [4], under 100 nM.
Take `CNc1nc(Nc2ccc(S(C)(=O)=O)cc2OC)nc2[nH]cc(C(F)(F)F)c12` [Example 163, N^2-(2-methoxy-4-(methylsulfonyl)phenyl)-N^4-methyl-5-(trifluoromethyl)-7H-pyrrolo[2,3-d]pyrimidine-2,4-diamine]: the IC50 in assay [1] is 101 to 300 nM; in assay [2], 301 to 1000 nM; in assay [3] it was under 100 nM; in assay [4], under 100 nM.
In the case of `CCNc1nc(Nc2ccc(C(=O)N3CCOCC3)c3c2OCCO3)nc2[nH]cc(C#N)c12` [Example 119, 4-(ethylamino)-2-((8-(morpholine-4-carbonyl)-2,3-dihydrobenzo[b][1,4]dioxin-5-yl)amino)-7H-pyrrolo[2,3-d]pyrimidine-5-carbonitrile], the IC50 in assay [1] was 301 to 1000 nM; in assay [2], under 100 nM; in assay [3], under 100 nM; in assay [4], under 100 nM.
As to `CCNc1nc(Nc2ccc(S(C)(=O)=O)cc2OC)nc2[nH]cc(C#N)c12` [Example 98, 4-(ethylamino)-2-((2-methoxy-4-(methylsulfonyl)phenyl)amino)-7H-pyrrolo[2,3-d]pyrimidine-5-carbonitrile], the IC50 was 301 to 1000 nM in assay [1], 301 to 1000 nM in assay [2], under 100 nM in assay [3] and under 100 nM in assay [4].
On to `O=C(c1ccc(Nc2nc(NC3CC3)c3c(C(F)(F)F)c[nH]c3n2)c2c1OCCO2)N1CCOCC1` [Example 182, (8-((4-(cyclopropylamino)-5-(trifluoromethyl)-7H-pyrrolo[2,3-d]pyrimidin-2-yl)amino)-2,3-dihydrobenzo[b][1,4]dioxin-5-yl)(morpholino)methanone], for which the IC50 in assay [1] was 301 to 1000 nM; in assay [2], 301 to 1000 nM; in assay [3], under 100 nM; in assay [4], under 100 nM.
Turning to `COCCNc1nc(Nc2ccc(C(=O)N3CCOCC3)c3c2OCCO3)nc2[nH]cc(C#N)c12` [Example 123, 4-((2-methoxyethyl)amino)-2-((8-(morpholine-4-carbonyl)-2,3-dihydrobenzo[b][1,4]dioxin-5-yl)amino)-7H-pyrrolo[2,3-d]pyrimidine-5-carbonitrile], the IC50 in assay [1] is 101 to 300 nM; in assay [2], under 100 nM; in assay [3], under 100 nM; in assay [4], under 100 nM.
`N#Cc1c[nH]c2nc(Nc3ccc(C(=O)N4CCOCC4)c4c3OCCO4)nc(NCC3CC3)c12` [Example 130, 4-((cyclopropylmethyl)amino)-2-((8-(morpholine-4-carbonyl)-2,3-dihydrobenzo[b][1,4]dioxin-5-yl)amino)-7H-pyrrolo[2,3-d]pyrimidine-5-carbonitrile]: the IC50 was 301 to 1000 nM in assay [1], 301 to 1000 nM in assay [2], under 100 nM in assay [3] and under 100 nM in assay [4].
Take `CNc1nc(Nc2ccc(S(C)(=O)=O)cc2OC)nc2[nH]cc(C#N)c12` [Example 257, 2-((2-methoxy-4-(methylsulfonyl)phenyl)amino)-4-(methylamino)-7H-pyrrolo[2,3-d]pyrimidine-5-carbonitrile]: the IC50 in assay [1] was 301 to 1000 nM; in assay [2], 301 to 1000 nM; in assay [3], under 100 nM; in assay [4], under 100 nM.
Regarding `COCCNc1nc(Nc2ccc(C(=O)N3CCOCC3)c3c2OCCO3)nc2[nH]cc(C(F)(F)F)c12` [Example 168, (8-((4-((2-methoxyethyl)amino)-5-(trifluoromethyl)-7H-pyrrolo[2,3-d]pyrimidin-2-yl)amino)-2,3-dihydrobenzo[b][1,4]dioxin-5-yl)(morpholino)methanone], the IC50 in assay [1], in assay [2], in assay [3] and in assay [4] was under 100 nM each time.
Regarding `CC[C@@H](C)Nc1nc(Nc2ccc(C(=O)N3CCOCC3)c3c2OCCO3)nc2[nH]cc(C(F)(F)F)c12` [Example 174, (R)-(8-((4-(sec-butylamino)-5-(trifluoromethyl)-7H-pyrrolo[2,3-d]pyrimidin-2-yl)amino)-2,3-dihydrobenzo[b][1,4]dioxin-5-y)(morpholino)methanone], the IC50 is 301 to 1000 nM in assay [1], 301 to 1000 nM in assay [2], under 100 nM in assay [3] and under 100 nM in assay [4].
For `COCC(C)(C)Nc1nc(Nc2ccc(S(C)(=O)=O)cc2OC)nc2[nH]cc(C(F)(F)F)c12` [Example 177, N^4-(1-methoxy-2-methylpropan-2-yl)-N^2-(2-methoxy-4-(methylsulfonyl)phenyl)-5-(trifluoromethyl)-7H-pyrrolo[2,3-d]pyrimidine-2,4-diamine], the IC50 in assay [1], in assay [2], in assay [3] and in assay [4] was 301 to 1000 nM in each case.
For `CCCNc1nc(Nc2ccc(S(C)(=O)=O)cc2OC)nc2[nH]cc(C(F)(F)F)c12` [Example 181, N^2-(2-methoxy-4-(methylsulfonyl)phenyl)-N^4-propyl-5-(trifluoromethyl)-7H-pyrrolo[2,3-d]pyrimidine-2,4-diamine], the IC50 in assay [1] was 301 to 1000 nM; in assay [2] it was 301 to 1000 nM; in assay [3], 101 to 300 nM; in assay [4], 101 to 300 nM.
